This note sets out measurements from US20050197350A1, “Novel quinoline, tetrahydroquinazoline, and pyrimidine derivatives and methods of treatment related to the use thereof” (TAISHO PHARMACEUTICAL CO., LTD., priority 2003, published 2005).

The test system of one experiment is MCH receptors. Description: MCH receptor activity class (method not given). Conditions: MCH receptor activity class 1-3 (percent of control at 10^-7 M or IC50).
`CN(C)c1ccnc(N[C@H]2CC[C@@H](CNC(=O)Nc3ccc(F)c(Cl)c3)CC2)n1` [compound 2450, N-(3-chloro-4-fluorophenyl)-N′-[(cis-4-{[4-(dimethylamino)pyrimidin-2-yl]amino}cyclohexyl)methyl]urea]: the class is listed as 1 (Class 1: The value of percent of control at 10^−7 M was less than 40% or the value of IC50 was less than 50 nM.).

Consider `CCCCc1ccc(NC(=S)N[C@H]2CC[C@@H](Nc3cc(N(C)C)c4ccccc4n3)CC2)c(C)c1` [compound 2313], for which the class is listed as 3 (Class 3 The value of percent of control at 10^−7 M was more than 60% or the value of IC50 was more than 200 nM.).

The same experiment, now with this note: MCH receptor; class by percent of control at 10^-7 M or IC50.
Regarding `CN(C)c1cc(N[C@H]2CC[C@@H](CNC(=O)c3cccc(Br)c3)CC2)nc2ccccc12` [compound 148], the class is given as 3 (Class 3 The value of percent of control at 10^−7 M was more than 60% or the value of IC50 was more than 200 nM.).

In the case of `Cc1ccccc1CNC(=S)N[C@H]1CC[C@@H](Nc2nc3c(c(N(C)C)n2)CCCC3)CC1` [compound 2040], the class was 3 (Class 3 The value of percent of control at 10^−7 M was more than 60% or the value of IC50 was more than 200 nM.).

With `CN(C)c1cc(N[C@H]2CC[C@@H](NC(=O)c3ccc([N+](=O)[O-])o3)CC2)nc2ccccc12` [compound 111, N-(cis-4-{[4-(dimethylamino)quinolin-2-yl]amino}cyclohexyl)-5-nitro-2-furamide], the class is listed as 1 (Class 1: The value of percent of control at 10^−7 M was less than 40% or the value of IC50 was less than 50 nM.).

As for `CN(C)c1nc(N[C@H]2CC[C@@H](NC(=O)NCCc3cccs3)CC2)nc2c1CCCC2` [compound 1914], the class is 3 (Class 3 The value of percent of control at 10^−7 M was more than 60% or the value of IC50 was more than 200 nM.).

Staying with this experiment, now noted: activity class 1-3: percent of control at 10^-7 M or IC50.
As for `COc1ccc(CCCCNC[C@H]2CC[C@@H](Nc3nccc(N(C)C)n3)CC2)cc1` [compound 1525], the class is given as 3 (Class 3 The value of percent of control at 10^−7 M was more than 60% or the value of IC50 was more than 200 nM.).

Regarding `CN(C)c1nc(N[C@H]2CC[C@@H](NC(=O)NC(c3ccccc3)c3ccccc3)CC2)nc2c1CCCC2` [compound 1689], the class was 1 (Class 1: The value of percent of control at 10^−7 M was less than 40% or the value of IC50 was less than 50 nM.).

`CN(C)c1ccnc(N[C@H]2CC[C@@H](CNC(=O)Oc3ccc(Br)cc3)CC2)n1` [compound 1643]: the class was 3 (Class 3 The value of percent of control at 10^−7 M was more than 60% or the value of IC50 was more than 200 nM.).

Still in this experiment, the particulars now being: activity class per percent of control at 10^-7 M or IC50.
For the compound `Cc1cc(CNC[C@H]2CC[C@@H](Nc3cc(N(C)C)c4ccccc4n3)CC2)cc(C)c1O` [compound 1140], the class was 3 (Class 3 The value of percent of control at 10^−7 M was more than 60% or the value of IC50 was more than 200 nM.).

Consider `CSc1ccc(Cl)c(C(=O)N[C@H]2CC[C@@H](Nc3nc4c(c(N(C)C)n3)CCCC4)CC2)c1` [compound 1056], for which the class was 3 (Class 3 The value of percent of control at 10^−7 M was more than 60% or the value of IC50 was more than 200 nM.).

In the case of `CN(C)c1cc(N[C@H]2CC[C@@H](NCc3c[nH]c4ccccc34)CC2)nc2ccccc12` [compound 1087], the class is given as 3 (Class 3 The value of percent of control at 10^−7 M was more than 60% or the value of IC50 was more than 200 nM.).

The experiment is the same for the next values; noted with them: class 1-3 by percent of control at 10^-7 M or IC50.
In the case of `CN(C)c1nc(N[C@H]2CC[C@@H](NC(=O)/C=C/c3ccc([N+](=O)[O-])cc3)CC2)nc2c1CCCC2` [compound 515], the class is recorded as 3 (Class 3 The value of percent of control at 10^−7 M was more than 60% or the value of IC50 was more than 200 nM.).

Consider `CN(C)c1nc(N[C@H]2CC[C@@H](NC(=O)CC3CCCC3)CC2)nc2c1CCCC2` [compound 511], for which the class is on record as 3 (Class 3 The value of percent of control at 10^−7 M was more than 60% or the value of IC50 was more than 200 nM.).

In the case of `CN(C)c1ccnc(N[C@H]2CC[C@@H](CNC(=O)/C=C/c3ccc([N+](=O)[O-])cc3)CC2)n1` [compound 424], the class was 1 (Class 1: The value of percent of control at 10^−7 M was less than 40% or the value of IC50 was less than 50 nM.).

The experiment is the same for the next values; noted with them: class by percent of control at 10^-7 M or IC50.
In the case of `CCn1c2ccccc2c2cc(CNC[C@H]3CC[C@@H](Nc4nccc(N(C)C)n4)CC3)ccc21` [compound 1273], the class is on record as 1 (Class 1: The value of percent of control at 10^−7 M was less than 40% or the value of IC50 was less than 50 nM.).

Turning to `CN(C)c1ccnc(N[C@H]2CC[C@@H](NC(=O)c3ccccc3Sc3ccccc3C#N)CC2)n1` [compound 875], the class is given as 3 (Class 3 The value of percent of control at 10^−7 M was more than 60% or the value of IC50 was more than 200 nM.).

As for `CN(C)c1ccnc(N[C@H]2CC[C@@H](NC(=O)c3ccc(I)o3)CC2)n1` [compound 819, N-(cis-4-{[4-(dimethylamino)pyrimidin-2-yl]amino}cyclohexyl)-5-iodo-2-furamide], the class is on record as 2 (Class 2: The value of percent of control at 10^−7 M was from 40% to 60% or the value of IC′50 was from 50 nM to 200 nM.).

`COc1cc(CN[C@H]2CC[C@@H](Nc3nccc(N(C)C)n3)CC2)ccc1O` [compound 1241]: the class is given as 3 (Class 3 The value of percent of control at 10^−7 M was more than 60% or the value of IC50 was more than 200 nM.).

For `CN(C)c1cc(N[C@H]2CC[C@@H](NC(=O)C(CC(=O)c3ccc(C(C)(C)C)cc3)c3cn(C)c4ccccc34)CC2)nc2ccccc12` (relative stereo) [compound 721], the class is listed as 3 (Class 3 The value of percent of control at 10^−7 M was more than 60% or the value of IC50 was more than 200 nM.).

As to `CN(C)c1ccnc(N[C@H]2CC[C@@H](NC(=O)c3ccc4c(c3)OCO4)CC2)n1` [compound 265], the class is 3 (Class 3 The value of percent of control at 10^−7 M was more than 60% or the value of IC50 was more than 200 nM.).

Take `CN(C)c1nc(N[C@H]2CC[C@@H](CNCc3ccsc3)CC2)nc2c1CCCC2` [compound 1425]: the class is given as 3 (Class 3 The value of percent of control at 10^−7 M was more than 60% or the value of IC50 was more than 200 nM.).

Take `COc1ccc2ccccc2c1CN[C@H]1CC[C@@H](Nc2nccc(N(C)C)n2)CC1` [compound 1211]: the class was 3 (Class 3 The value of percent of control at 10^−7 M was more than 60% or the value of IC50 was more than 200 nM.).

On to `COc1cccc(CNC[C@H]2CC[C@@H](Nc3cc(N(C)C)c4ccccc4n3)CC2)c1OC` [compound 1176], for which the class is 3 (Class 3 The value of percent of control at 10^−7 M was more than 60% or the value of IC50 was more than 200 nM.).

On to `Cc1ccc(C(=O)c2ccccc2C(=O)N[C@H]2CC[C@@H](Nc3cc(N(C)C)c4ccccc4n3)CC2)cc1` [compound 759], for which the class is on record as 3 (Class 3 The value of percent of control at 10^−7 M was more than 60% or the value of IC50 was more than 200 nM.).

For `CCOC(=O)c1cccc(NC(=O)N[C@H]2CC[C@@H](Nc3cc(N(C)C)c4ccccc4n3)CC2)c1` [compound 2127], the class is reported as 3 (Class 3 The value of percent of control at 10^−7 M was more than 60% or the value of IC50 was more than 200 nM.).

With `Cc1ccccc1CNC[C@H]1CC[C@@H](Nc2nc3c(c(N(C)C)n2)CCCC3)CC1` [compound 1427], the class is listed as 3 (Class 3 The value of percent of control at 10^−7 M was more than 60% or the value of IC50 was more than 200 nM.).

`Cc1cc(C)c(CCNC[C@H]2CC[C@@H](Nc3nc4c(c(N(C)C)n3)CCCC4)CC2)c(C)c1` [compound 1501]: the class was 3 (Class 3 The value of percent of control at 10^−7 M was more than 60% or the value of IC50 was more than 200 nM.).

With `CN(C)c1nc(N[C@H]2CC[C@@H](NC(=O)NCc3ccc(Br)cc3)CC2)nc2c1CCCC2` [compound 1723], the class is given as 3 (Class 3 The value of percent of control at 10^−7 M was more than 60% or the value of IC50 was more than 200 nM.).

In the case of `CN(C)c1cc(N[C@H]2CC[C@@H](NC(=O)NCc3ccccc3Cl)CC2)nc2ccccc12` [compound 2105], the class is recorded as 2 (Class 2: The value of percent of control at 10^−7 M was from 40% to 60% or the value of IC′50 was from 50 nM to 200 nM.).

For `CN(C)c1ccnc(N[C@H]2CC[C@@H](NC(=O)c3ccc(F)c(Cl)c3F)CC2)n1` [compound 280], the class is on record as 3 (Class 3 The value of percent of control at 10^−7 M was more than 60% or the value of IC50 was more than 200 nM.).

In the case of `COc1ccc(CC(=O)NC[C@H]2CC[C@@H](Nc3nc4c(c(N(C)C)n3)CCCC4)CC2)cc1` [compound 631], the class is on record as 1 (Class 1: The value of percent of control at 10^−7 M was less than 40% or the value of IC50 was less than 50 nM.).

Regarding `CCc1ccccc1CNC[C@H]1CC[C@@H](Nc2cc(N(C)C)c3ccccc3n2)CC1` [compound 1201], the class is given as 3 (Class 3 The value of percent of control at 10^−7 M was more than 60% or the value of IC50 was more than 200 nM.).

The experiment is the same for the next values; noted with them: class by percent of control at 10^−7 M or IC50.
On to `Cc1cc(N(C)C)nc(N[C@H]2CC[C@@H](NCc3cccc(OC(F)(F)F)c3)CC2)n1` [compound 3005], for which the class is reported as 3 (Class 3 The value of percent of control at 10^−7 M was more than 60% or the value of IC50 was more than 200 nM.).

In the case of `Cc1cnc(N[C@H]2CC[C@@H](NC(=O)N(C)c3cccc(F)c3)CC2)nc1N(C)C` [compound 3025, N′-(cis-4-{[4-(dimethylamino)-5-methylpyrimidin-2-yl]amino}cyclohexyl)-N-(3-fluorophenyl)-N-methylurea], the class was 1 (Class 1: The value of percent of control at 10^−7 M was less than 40% or the value of IC50 was less than 50 nM.).

Take `Cc1cc(C(=O)N[C@H]2CC[C@@H](CNc3ncc(C)c(N(C)C)n3)CC2)ccc1Br` [compound 2725, 4-bromo-N-[cis-4-({[4-(dimethylamino)-5-methylpyrimidin-2-yl]amino}methyl)cyclohexyl]-3-methylbenzamide]: the class was 2 (Class 2: The value of percent of control at 10^−7 M was from 40% to 60% or the value of IC′50 was from 50 nM to 200 nM.).
